Results from patent publication US20220289794A1, “SYNTHETIC ANTIMICROBIAL PEPTIDES” (priority 2019, published 2022).

Experiments:
[1] = test system: P. aeruginosa (ATCC 10145); test: Broad-spectrum activity against Gram-Negative bacteria (MIC); assay type: cell-based; conditions: Table 16, Gram-negative panel
[2] = test system: Enterococcus faecalis ATCC 51575; conditions: E. faecalis ATCC 51575
[3] = test system: B. subtilis (ATCC-6633); test: Broad-spectrum activity against Gram-Positive bacteria (MIC); assay type: cell-based; parameters: unit not given here
[4] = test system: Klebsiella pneumoniae (ATCC BAA-1705); conditions: Table 16, Gram-negative panel
[5] = test system: Enterococcus faecium ATCC 27270; conditions: E. faecium ATCC 27270
[6] = test system: Enterococcus faecium ATCC 700221; conditions: E. faecium ATCC 700221
[7] = test system: Enterococcus faecalis ATCC 29212; conditions: E. faecalis ATCC 29212
[8] = test system: Pseudomonas aeruginosa (ATCC 27883); conditions: P. aeruginosa ATCC 27883
[9] = test system: Klebsiella pneumoniae ATCC 13883; conditions: Table 16, Gram-negative panel
[10] = test system: P. aeruginosa (ATCC BAA-1744); test: Broad-spectrum activity against Gram-Negative bacteria (MIC); assay type: cell-based; conditions: Table 16, Gram-negative panel
[11] = test system: B. cereus (ATCC-13061); test: Broad-spectrum activity against Gram-Positive bacteria (MIC); assay type: cell-based; parameters: unit not given here
[12] = test system: Methicillin-resistant Staphylococcus aureus MRSA (ATCC BAA-1556); conditions: MRSA ATCC BAA-1556
[13] = test system: A. baumannii (ATCC BAA-1605); test: Broad-spectrum activity against Gram-Negative bacteria (MIC); assay type: cell-based; conditions: Table 16, Gram-negative panel
[14] = test system: S. aureus ATCC 29213; conditions: S. aureus ATCC 29213
[15] = test system: Streptococcus pneumoniae ATCC 51938; conditions: S. pneumoniae ATCC 51938
[16] = test system: Streptococcus pneumoniae ATCC 49619; conditions: S. pneumoniae ATCC 49619
[17] = test system: E. coli (ATCC BAA-2452); test: Broad-spectrum activity against Gram-Negative bacteria (MIC); assay type: cell-based; conditions: Table 16, Gram-negative panel
[18] = test system: Escherichia coli (ATCC 25922); conditions: E. coli ATCC 25922

Row | Substance | MIC P. aeruginosa (ATCC 10145) [1] [µg/mL] | Broad-spectrum activity E. faecalis (ATCC 51575) [2] | Broad-spectrum activity B. subtilis (ATCC-6633) [3] | MIC K. pneumonia (ATCC BAA-1705) [4] [µg/mL] | Broad-spectrum activity E. faecium (ATCC 27270) [5] | Broad-spectrum activity E. faecium (ATCC 700221) [6] | Broad-spectrum activity E. faecalis (ATCC 29212) [7] | MIC P. aeruginosa ATCC 27883 [8] [µg/mL] | MIC K. pneumonia (ATCC 13883) [9] [µg/mL] | MIC P. aeruginosa (ATCC BAA-1744) [10] [µg/mL] | Broad-spectrum activity B. cereus (ATCC-13061) [11] | MIC MRSA ATCC BAA-1556 [12] [µg/mL] | MIC A. baumannii (ATCC BAA-1605) [13] [µg/mL] | MIC S. aureus ATCC 29213 [14] [µg/mL] | Broad-spectrum activity S. pneumoniae (ATCC 51938) [15] | Broad-spectrum activity S. pneumoniae (ATCC 49619) [16] | MIC E. coli (ATCC BAA-2452) [17] [µg/mL] | MIC E. coli ATCC 25922 [18] [µg/mL]
1 | c[Arg-Arg-Arg-Arg-Dip-trp-Dip] [IFX-089] | 25 | 12.5 | 3.1 | 25 | 6.2 | 12.5 | 12.5 | 12.5 | 50 | 25 | 12.5 | 3.1 | 12.5 | 3.1 | 25 | 50 | 12.5 | 12.5
2 | c[Arg-Arg-Arg-Arg-naI-trp-naI] [IFX-143] | 50 | 12.5 | 3.1 | 25 | 3.1 | 3.1 | 6.2 | 64 | > 50 | 25 | 6.2 | 3.1 | 12.5 | 1.5 | 12.5 | 50 | 25 | 16
3 | c[Arg-Arg-arg-arg-NaI-trp-NaI] [IFX-139] | 50 | 6.2 | 1.5 | 25 | 3.1 | 6.2 | 6.2 | 32 | > 50 | 50 | 3.1 | 3.1 | 12.5 | 3.1 | 12.5 | 25 | 25 | 32
4 | c[arg-arg-Arg-Arg-naI-trp-naI] [IFX-138] | 50 | 6.2 | 3.1 | 50 | 3.1 | 6.2 | 6.2 | 32 | 50 | 50 | 6.2 | 3.1 | 25 | 1.5 | 25 | 50 | 12.5 | 16
5 | c[Arg-Arg-arg-Arg-Dip-Dip-Dip] [IFX-064] | 25 | 12.5 | 1.5 | 12.5 | 3.1 | 1.5 | 6.2 | 12.5 | 50 | 25 | 3.1 | 3.1 | 6.2 | 3.1 | 25 | 50 | 6.2 | 12.5
